Data taken from patent US20170112861A1, “DRUG DELIVERY ENHANCER COMPRISING SUBSTANCE FOR ACTIVATING LYSOPHOSPHOLIPID RECEPTORS” (Osaka University, priority 2014, published 2017).

Legend:
[1] = tested on: newly formed blood vessels in the choroid; test: Age-related macular degeneration model (laser-induced choroidal neovascularization), dextran leakage; assay type: in vivo, mice; settings: LPA 3 mg/kg i.p. on days 5 and 6 after laser irradiation, day 7, vs control
Description: C57BL/6 NCrSlc mice aged 8 weeks (females, SLC, Inc.) were used. Tropicamide (Santen Pharmaceutical) was dropped in the eyes of the mice under anesthesia with pentobarbital (Kyoritsu Seiyaku Corporation) to dilate the pupil. The retina surrounding the optic disc of the ocular fundus was irradiated with a laser (Ultima 2000 SE) at four sites in each of the eyes of the mice under observation with a slit lamp microscope for the induction of choroidal neovascularization. The laser irradiation conditions were 150 mW, 0.05 seconds, and 75 μm. LPA (3 mg/kg in 100 μL PBS) was intraperitoneally administered to LPA group (n=3) on days 5 and 6 after laser irradiation, and PBS (100 μL) was intraperitoneally administered to control group (n=3) on days 5 and 6 after laser irradiation. On day 7 after laser irradiation (at 48 hours after first administration of LPA), FITC-labeled 70 kDa dextran (Sigma) was administered to the tail vein of the mice under anesthesia with pentobarbital. The dextran was prepared as a solution by dissolving and diluting the FITC-labeled 70 kDa dextran in PBS to a concentration of 5 mg/mL, and 50 μL of the solution was used for the administration. At 10 minutes after dextran administration, the eyeballs were collected. […]

[2] = tested on: tumor blood vessels of LLC cell tumors; test: Structural changes in tumor blood vessels after LPA administration (anti-CD31 immunostaining, AngioTool); assay type: in vivo; settings: LLC tumor-bearing mice, LPA 3 mg/kg i.p.
Experimental: Lewis lung cancer cell line (hereinafter called LLC cells) was used as the mouse cancer cell line. LLC cells (1×10^6 cells in 100 μL PBS per animal) were subcutaneously injected into C57BL/6 NCrSlc mice aged 8 weeks (females, SLC, Inc.).
The LPA used was 18:1 LPA (Avanti Polar Lipids, Inc.). A 10 mM LPA stock solution was prepared using 50% ethanol and the solution was stored at −30° C. Before use, the LPA stock solution was thawed and homogenized with an ultrasonic cleaner (SND Co., Ltd.) for 1 minute. The solution was diluted in PBS before administration so that the concentration of LPA was 3 mg/kg in 100 μL PBS. The prepared solution was used for LPA administration.
Day 9 post-inoculation of LLC cells, mice that developed a tumor with a volume of 60 to 80 mm^3 (volume=length×width×height×0.5) were selected and used for the test. Four groups each of three mice were provided: control group, LPA/6 hr group, LPA/12 hr group and LPA/24 hr group. LPA was intraperitoneally administered to the mice of the LPA groups at a dose of 3 mg/kg in 100 μL PBS. The tumors were harvested before LPA administration (control group), and at 6, 12 and 24 hours after LPA administration. The tumors were immersed in 4% paraformaldehyde (PFA)/PBS and shaken at 4° C. overnight for fixation. The tumors were washed with cold PBS (4° C.). Washing was continued for 6 hours, and PBS was renewed every 30 minutes. The tumors were immersed in 15% sucrose/PBS and shaken at 4° C. for 3 hours. The tumors were then immersed in 30% sucrose/PBS and shaken at 4° C. for 3 hours. The tumors were embedded in O.C.T compound (Tissue-Tek) and frozen at −80° C. for 3 days or longer.
The tumors embedded in O.C.T. compound were sectioned at 40 μm with a cryostat (Leica). The sections were placed on glass slides, and air-dried for 2 hours with a drier. The sections were encircled with a liquid blocker. […] The vessel length was measured in the photographs using the vascular structure analysis software AngioTool.

[3] = tested on: B16-BL6 cells; test: Lung metastasis from primary lesion in B16-BL6 cell tumor-bearing mice; assay type: in vivo; settings: B16-BL6 tumors, LPA 3 mg/kg i.p. once daily until day 21, counted on day 42, vs control, p<0.01
Experimental: B16-BL6 cells (1×10^6 cells in 100 μL PBS per animal) were subcutaneously injected into C57BL/6 NCrSlc mice aged 8 weeks (females, SLC, Inc.). On day 7 post-inoculation of B16-BL6 cells, mice with a tumor volume of 30 to 50 mm^3 were selected. The mice were divided into two groups: control group and LPA group (n=3). LPA (3 mg/kg in 100 μL PBS) or PBS (100 μL) was administered intraperitoneally. LPA or PBS was administered once daily until day 21 post-inoculation. On day 42 post-inoculation of B16-BL6 cells, mice were euthanized and the lung was harvested. The number of metastatic colonies in the harvested lung was counted under a stereoscopic microscope (Leica). For the statistical analysis, Student's t-test was performed.

lysophosphatidic acid [LPA]
leakage of FITC-labeled 70 kDa dextran from newly formed blood vessels [1]: the leakage of dextran was significantly inhibited | size of the newly formed blood vessels in the choroid [1]: no significant difference was observed | structure of tumor blood vessels (vascular network) ([2]; 12 and 24 hours after administration): the formation of a fine vascular network similar to that in normal tissues was observed | structure of tumor blood vessels (vascular network) ([2]; 6 hours after administration): the connection of the blood vessels was observed | average length of blood vessels (AngioTool) ([2]; vs before administration): the length of blood vessels was increased | lung metastasis (number of lung metastatic colonies) [3]: significantly inhibited
